The target of the test is full-length human PIKFYVE (Homo sapiens (Human), UniProt Q9Y2I7, L932S/Q1183K/Q995L/S1033A/S696N/T998S). Description: PIKfyve biochemical assay (ADP-Glo Kinase assay, Carna Biosciences). The source says:
PIKfyve Biochemical Assay. The biochemical […] inhibition assays were run by Carna Biosciences according to proprietary methodology based on the Promega […] Kinase assay. […] NP_055855.2] was expressed as N-terminal GST-fusion protein (265 kDa) using baculovirus expression system. GST-PIKFYVE was purified by using glutathione sepharose chromatography and used in an ADP-GloTM Kinase assay (Promega). Reactions were set up by adding the test compound solution, substrate solution, ATP solution and kinase solution, each at 4× final concentrations. Reactions were prepared with assay buffer (50 mM MOPS, 1 mM DTT, pH7.2), mixed, and incubated in black 384 well polystyrene plates for 1 hour at room temperature. ADP-Glo^TM reagent was then added for 40 minutes, followed by kinase detection reagent for an additional 40 minutes. The kinase activity was evaluated by detecting relative light units on a luminescence plate reader. […] IC50 values were calculated from concentration vs % inhibition curves by fitting to a four-parameter logistic curve. […] The biochemical […] inhibition assays were run by Carna Biosciences according to proprietary methodology based on the Promega ADP-GloTM Kinase assay. […] GST-PIKFYVE was purified by using glutathione sepharose chromatography and used in an ADP-GIoTM Kinase assay (Promega). Reactions were set up by adding the test compound solution, substrate solution, ATP solution and kinase solution, each at 4× final concentrations. Reactions were prepared with assay buffer (50 mM MOPS, 1 mM DTT, pH7.2), mixed, and incubated in black 384 well polystyrene plates for 1 hour at room temperature. ADP-GIoTM reagent was then added for 40 minutes, followed by kinase detection reagent for an additional 40 minutes. The kinase activity was evaluated by detecting relative light units on a luminescence plate reader. […] IC50 values were calculated from concentration vs % inhibition curves by fitting to a four-parameter logistic curve. […] The same compounds were also tested in both FAB1 and PIKFYVE TDP-43 yeast models.
Background: ADP-Glo first removes unused ATP, then detects ADP through luciferase.

The term IC50 denotes the point on the concentration scale where inhibition reaches its midpoint. Read a high IC50 as weaker potency in that assay.

Molecules are shown by their SMILES.

Chain of full-length human PIKFYVE (Q9Y2I7 whole entry S696N/L932S/Q995L/T998S/S1033A/Q1183K, the tested form may be a part): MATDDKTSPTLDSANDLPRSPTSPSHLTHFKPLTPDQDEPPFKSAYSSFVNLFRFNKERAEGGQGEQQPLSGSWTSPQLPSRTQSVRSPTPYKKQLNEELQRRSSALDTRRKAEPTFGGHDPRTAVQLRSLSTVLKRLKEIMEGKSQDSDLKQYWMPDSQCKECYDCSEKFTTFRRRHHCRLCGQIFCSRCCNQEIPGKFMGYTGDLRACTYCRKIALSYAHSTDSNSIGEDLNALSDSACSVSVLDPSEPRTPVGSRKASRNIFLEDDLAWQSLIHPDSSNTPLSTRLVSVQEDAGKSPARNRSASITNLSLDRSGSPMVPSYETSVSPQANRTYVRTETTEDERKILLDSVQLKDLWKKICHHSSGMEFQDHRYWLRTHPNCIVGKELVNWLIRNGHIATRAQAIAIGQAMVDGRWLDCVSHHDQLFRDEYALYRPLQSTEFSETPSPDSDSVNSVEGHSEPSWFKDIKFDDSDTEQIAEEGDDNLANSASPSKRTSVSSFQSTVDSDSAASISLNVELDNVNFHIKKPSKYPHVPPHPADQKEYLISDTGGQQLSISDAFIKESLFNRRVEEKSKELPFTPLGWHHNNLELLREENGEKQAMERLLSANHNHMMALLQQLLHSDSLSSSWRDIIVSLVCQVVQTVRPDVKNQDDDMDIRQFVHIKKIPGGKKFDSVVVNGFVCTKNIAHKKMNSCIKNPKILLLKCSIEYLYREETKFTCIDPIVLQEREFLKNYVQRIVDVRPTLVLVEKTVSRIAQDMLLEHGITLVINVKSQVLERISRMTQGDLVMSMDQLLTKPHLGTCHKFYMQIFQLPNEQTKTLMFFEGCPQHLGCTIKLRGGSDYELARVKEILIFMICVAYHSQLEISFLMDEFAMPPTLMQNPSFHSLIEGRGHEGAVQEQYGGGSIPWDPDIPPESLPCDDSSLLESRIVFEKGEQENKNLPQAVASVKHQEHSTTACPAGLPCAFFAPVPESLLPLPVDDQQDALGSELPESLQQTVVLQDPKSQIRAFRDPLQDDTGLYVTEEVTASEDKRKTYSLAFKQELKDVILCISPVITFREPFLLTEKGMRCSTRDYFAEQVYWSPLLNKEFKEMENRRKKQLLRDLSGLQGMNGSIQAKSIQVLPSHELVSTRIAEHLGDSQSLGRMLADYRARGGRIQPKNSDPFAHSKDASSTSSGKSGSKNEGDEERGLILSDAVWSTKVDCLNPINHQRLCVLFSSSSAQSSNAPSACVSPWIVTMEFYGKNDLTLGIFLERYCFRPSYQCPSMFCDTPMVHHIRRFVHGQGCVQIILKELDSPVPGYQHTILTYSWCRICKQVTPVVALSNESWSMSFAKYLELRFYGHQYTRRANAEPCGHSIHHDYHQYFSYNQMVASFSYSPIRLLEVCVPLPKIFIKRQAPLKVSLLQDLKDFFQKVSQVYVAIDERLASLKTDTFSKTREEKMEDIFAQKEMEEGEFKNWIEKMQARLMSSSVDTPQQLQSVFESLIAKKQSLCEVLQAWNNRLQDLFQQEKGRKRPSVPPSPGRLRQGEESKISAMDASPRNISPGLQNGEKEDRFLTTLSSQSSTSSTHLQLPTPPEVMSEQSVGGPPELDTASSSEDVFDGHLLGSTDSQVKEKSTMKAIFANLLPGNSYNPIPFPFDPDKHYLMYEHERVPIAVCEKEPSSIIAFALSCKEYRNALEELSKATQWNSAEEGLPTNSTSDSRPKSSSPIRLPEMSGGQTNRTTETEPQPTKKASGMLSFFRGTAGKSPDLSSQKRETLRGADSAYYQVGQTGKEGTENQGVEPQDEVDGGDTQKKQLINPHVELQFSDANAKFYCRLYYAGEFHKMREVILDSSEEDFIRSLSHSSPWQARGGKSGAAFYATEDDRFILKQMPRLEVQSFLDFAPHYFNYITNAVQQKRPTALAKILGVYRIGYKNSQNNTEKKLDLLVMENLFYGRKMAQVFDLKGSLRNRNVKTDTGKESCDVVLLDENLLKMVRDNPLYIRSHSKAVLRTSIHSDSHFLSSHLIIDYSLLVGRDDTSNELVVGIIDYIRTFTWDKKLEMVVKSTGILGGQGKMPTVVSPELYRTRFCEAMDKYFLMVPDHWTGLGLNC

For `c1ccc(Cc2cccnc2-c2cc(N3CCOCC3)n3nc(-c4ccncc4)cc3n2)cc1` [Compound 40, 4-(5-(3-benzylpyridin-2-yl)-2-(pyridin-4-yl)pyrazolo[1,5-a]pyrimidin-7-yl)morpholine], the IC50 (class symbols) is 1 to 10 µM.

For the compound `COCCc1ccn(-c2cc(N3CCOCC3)n3nc(-c4ccncc4)cc3n2)n1` [Compound 81, 4-(5-(3-(2-methoxyethyl)-1H-pyrazol-1-yl)-2-(pyridin-4-yl)pyrazolo[1,5-a]pyrimidin-7-yl)morpholine], the half-inhibitory concentration (IC50) (class symbols) is 0.1 to 1 µM.

Under “class symbols”, `O=C(CCCc1cc(N2CCOCC2)n2nc(-c3ccncc3)cc2n1)c1ccccc1` [Compound 113, 4-(7-morpholino-2-(pyridin-4-yl)pyrazolo[1,5-a]pyrimidin-5-yl)-1-phenylbutan-1-one] had a half-inhibitory concentration (IC50) of 0.1 to 1 µM.

As for `c1cc(-c2cc3nc(-n4ccc(C5CCCOC5)n4)cc(N4CCOCC4)n3n2)ccn1` (centres unmarked) [Compound 61, 4-(2-(pyridin-4-yl)-5-(3-(tetrahydro-2H-pyran-3-yl)-1H-pyrazol-1-yl)pyrazolo[1,5-a]pyrimidin-7-yl)morpholine], the IC50 (class symbols) lay within 1 to 10 µM.

On to `O=c1c(-c2ccccc2)c(-c2ccccc2)cnn1-c1cc(N2CCOCC2)n2nc(-c3ccncc3)cc2n1` [Compound 6, 2-(7-morpholino-2-(pyridin-4-yl)pyrazolo[1,5-a]pyrimidin-5-yl)-4,5-diphenylpyridazin-3(2H)-one], for which the 50% inhibitory concentration (IC50) (class symbols) lay within 1 to 10 µM.

The compound `c1ccc(-n2ccc(-c3cc(N4CCOCC4)n4nc(C5CCCO5)cc4n3)n2)cc1` (centres unmarked) [Compound 96, 4-(5-(1-phenyl-1H-pyrazol-3-yl)-2-(tetrahydrofuran-2-yl)pyrazolo[1,5-a]pyrimidin-7-yl)morpholine] came in with a half-maximal inhibitory concentration (IC50) (class symbols) of 0.1 to 1 µM.

As for `c1ccc(Oc2nccc(-c3cc(N4CCOCC4)n4nc(-c5ccncc5)cc4n3)n2)cc1` [Compound 141, 4-(5-(2-phenoxypyrimidin-4-yl)-2-(pyridin-4-yl)pyrazolo[1,5-a]pyrimidin-7-yl)morpholine], half-maximal inhibition (numeric values) (IC50) required 1 µM.

For the setting “class symbols”, `c1cncc(-c2ccn(-c3cc(N4CCOCC4)n4nc(C5CCCO5)cc4n3)n2)c1` (centres unmarked) [Compound 92, 4-(5-(3-(pyridin-3-yl)-1H-pyrazol-1-yl)-2-(tetrahydrofuran-2-yl)pyrazolo[1,5-a]pyrimidin-7-yl)morpholine] had an IC50 of 1 to 10 µM.

With `Oc1cc(C2CCOCC2)nn1-c1cc(N2CCOCC2)n2nc(-c3ccncc3)cc2n1` [Compound 50, 1-(7-morpholino-2-(pyridin-4-yl)pyrazolo[1,5-a]pyrimidin-5-yl)-3-(tetrahydro-2H-pyran-4-yl)-1H-pyrazol-5-ol], the IC50 (class symbols) lay within 0.1 to 1 µM.

Where the note is “class symbols”, `CN1CCCC(c2cn(-c3cc(N4CCOCC4)n4nc(-c5ccncc5)cc4n3)cn2)C1` (centres unmarked) [Compound 18, 4-(5-(4-(1-methylpiperidin-3-yl)-1H-imidazol-1-yl)-2-(pyridin-4-yl)pyrazolo[1,5-a]pyrimidin-7-yl)morpholine] gave an IC50 of 1 to 10 µM.

Regarding `c1cc(-c2cc3nc(-n4cc5c(n4)CCOC5)cc(N4CCOCC4)n3n2)ccn1` [Compound 89, 2-(7-morpholino-2-(pyridin-4-yl)pyrazolo[1,5-a]pyrimidin-5-yl)-2,4,6,7-tetrahydropyrano[4,3-c]pyrazole], the IC50 (class symbols) was 0.1 to 1 µM.

Consider `Oc1cc(-c2ccccc2F)nn1-c1cc(N2CCOCC2)n2nc(-c3ccncc3)cc2n1` [Compound 53, 3-(2-fluorophenyl)-1-(7-morpholino-2-(pyridin-4-yl)pyrazolo[1,5-a]pyrimidin-5-yl)-1H-pyrazol-5-ol], for which the IC50 (class symbols) was 0.01 to 0.1 µM.

In turn, `Fc1cccc(Oc2ncccc2-c2cc(N3CCOCC3)n3nc(-c4ccncc4)cc3n2)c1` [Compound 137, 4-(5-(2-(3-fluorophenoxy)pyridin-3-yl)-2-(pyridin-4-yl)pyrazolo[1,5-a]pyrimidin-7-yl)morpholine] had an IC50 (class symbols) of 0.1 to 1 µM.

`Oc1cc(-c2cncnc2)nn1-c1cc(N2CCOCC2)n2nc(-c3ccncc3)cc2n1` [Compound 44, 1-(7-morpholino-2-(pyridin-4-yl)pyrazolo[1,5-a]pyrimidin-5-yl)-3-(pyrimidin-5-yl)-1H-pyrazol-5-ol] came in with an IC50 (class symbols) of 0.1 to 1 µM.
